From US6642392B1 (priority 1997, dated 2003)
Read-outs that look alike come from different tables or passages of the source.

What was measured:
Format in all cases: in vivo
Botrytis cinerea = experiment: Test E: gray mold, preventive spray on cucumber seedlings; conditions: for Test E disease control rating: gray mold on cucumber; for Test E disease control rating (100 = 100% disease control, 0 = no disease control): cucumber seedlings sprayed to run-off, inoculated the following day, rating relative to controls, unmarked compounds (standard test rate)
Outline: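 Compounds in 3% acetone were suspended with 250 ppm Trem 014 surfactant and sprayed to run-off on cucumber seedlings. B. cinerea spores were inoculated next day, then 48 h saturated humidity at 20° C and 5 days at 20° C. Disease control rated 0–100% versus controls.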

Phytophthora infestans = conditions: for Test D disease control rating: tomato late blight; for Test D disease control rating (100 = 100% disease control, 0 = no disease control): tomato seedlings sprayed to run-off, inoculated the following day, rating relative to controls, unmarked compounds (standard test rate)
Pyricularia oryzae = conditions: for Test C disease control rating: rice blast; for Test C disease control rating (100 = 100% disease control, 0 = no disease control): rice seedlings sprayed to run-off, inoculated the following day, rating relative to controls, unmarked compounds (standard test rate)
Puccinia recondita = experiment: Test B: wheat leaf rust, preventive spray on wheat seedlings; conditions: for Test B disease control rating: wheat leaf rust; for Test B disease control rating (100 = 100% disease control, 0 = no disease control): wheat seedlings sprayed to run-off, inoculated the following day, rating relative to controls, unmarked compounds (standard test rate)
Outline: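 Wheat seedlings were sprayed to run-off with compound (3% acetone, 250 ppm Trem 014), then inoculated with P. recondita spores the next day. They were held 24 h saturated at 20 °C, then 6 days at 20 °C. Ratings are 0–100% disease control versus controls.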

[1] = system: Eiysiphe graminis f. sp. tritici; experiment: Test A: wheat powdery mildew, preventive spray on wheat seedlings; conditions: for Test A disease control rating: wheat powdery mildew; for Test A disease control rating (100 = 100% disease control, 0 = no disease control): wheat seedlings sprayed to run-off, inoculated the following day, rating relative to controls, unmarked compounds (standard test rate)
Outline: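 Compounds (3% acetone, 250 ppm Trem 014) sprayed to run-off on wheat seedlings, inoculated next day with spore dust. Incubated 7 days at 20° C before disease rating, 0–100% control relative to untreated controls.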

[2] = 100 = 100% disease control, 0 = no control, unmarked entries (standard test concentration)
[3] = 100 = 100% disease control, 0 = no control relative to controls, unmarked entries (standard test concentration)

SMILES	Test E disease control rating (Botrytis cinerea; [2]) [%]	Test D disease control rating (Phytophthora infestans; [2]) [%]	Test C disease control rating (Pyricularia oryzae; [2]) [%]	Test B disease control rating (Puccinia recondita; [2]) [%]	Test A disease control rating [1, 3] [%]	also measured
CCC1(C(=O)NC(C)COc2ccc(Cl)cc2)C(C)C1(Cl)Cl (mixture of isomers) [83a]	–	–	–	–	–	Test E disease control rating (Botrytis cinerea; tested at 40 ppm): 0%; Test D disease control rating (Phytophthora infestans; tested at 40 ppm): 0%; Test C disease control rating (Pyricularia oryzae; tested at 40 ppm): 32%; Test B disease control rating (Puccinia recondita; tested at 40 ppm): 0%; Test A disease control rating ([1]; tested at 40 ppm): 0%
CCC1(C(=O)NC(C)CCn2c(C#N)cc(Br)c2C)C(C)C1(Cl)Cl (mixture of isomers) [compound 143]	0	0	53	0	0	–
CCC1(C(=O)NC(C)C=Cc2ccc(F)cc2)C(C)C1(Cl)Cl (mixture of isomers) [compound 261]	–	–	–	–	–	Test E disease control rating (100 = 100% disease control, 0 = no disease control) (Botrytis cinerea): 0%; Test D disease control rating (100 = 100% disease control, 0 = no disease control) (Phytophthora infestans): 54%; Test C disease control rating (100 = 100% disease control, 0 = no disease control) (Pyricularia oryzae): 100%; Test B disease control rating (100 = 100% disease control, 0 = no disease control) (Puccinia recondita): 0%; Test A disease control rating (100 = 100% disease control, 0 = no disease control) [1]: 0%
CCC1(C(=O)NC(C)COc2ccccc2I)C(C)C1(Cl)Cl (mixture of isomers) [87b]	–	–	–	–	–	Test E disease control rating (Botrytis cinerea; tested at 40 ppm): 0%; Test D disease control rating (Phytophthora infestans; tested at 40 ppm): 0%; Test C disease control rating (Pyricularia oryzae; tested at 40 ppm): 0%; Test B disease control rating (Puccinia recondita; tested at 40 ppm): 0%; Test A disease control rating ([1]; tested at 40 ppm): 52%
CC(COc1cccc(I)c1C#N)NC(=O)C(C#N)C(C)(C)C (mixture of isomers) [compound 45]	0	0	86	0	0	–
CCC1(C(=O)NC(C)COc2c(F)cccc2F)C(C)C1(Cl)Cl (mixture of isomers) [105a]	55	0	53	0	0	–
C[C@H](COc1cccc(Cl)c1Cl)NC(=O)C(C#N)C(C)(C)C (single isomer, unassigned) [31a]	0	51	74	68	62	–
CC(COc1c(Cl)cc(Cl)cc1Cl)NC(=O)C(C#N)C(C)(C)C (mixture of isomers) [compound 172]	95	0	86	0	0	–
CCC1(C(=O)NC(C)COc2cc(F)c(F)cc2C#N)C(C)C1(Cl)Cl (mixture of isomers) [compound 257]	–	–	–	–	–	Test E disease control rating (100 = 100% disease control, 0 = no disease control) (Botrytis cinerea): 0%; Test D disease control rating (100 = 100% disease control, 0 = no disease control) (Phytophthora infestans): 0%; Test C disease control rating (100 = 100% disease control, 0 = no disease control) (Pyricularia oryzae): 0%; Test B disease control rating (100 = 100% disease control, 0 = no disease control) (Puccinia recondita): 0%; Test A disease control rating (100 = 100% disease control, 0 = no disease control) [1]: 0%
C=CCc1ccccc1OCC(C)NC(=O)C1(CC)C(C)C1(Cl)Cl (centres unmarked) [101b]	–	–	–	–	–	Test E disease control rating (Botrytis cinerea; tested at 40 ppm): 0%; Test D disease control rating (Phytophthora infestans; tested at 40 ppm): 0%; Test C disease control rating (Pyricularia oryzae; tested at 40 ppm): 0%; Test B disease control rating (Puccinia recondita; tested at 40 ppm): 0%; Test A disease control rating ([1]; tested at 40 ppm): 0%
CCC1(C(=O)NC(C)COc2cc(Cl)cc(Cl)c2)C(C)C1(Cl)Cl (centres unmarked) [compound 115]	–	–	–	–	–	Test E disease control rating (Botrytis cinerea; tested at 40 ppm): 0%; Test D disease control rating (Phytophthora infestans; tested at 40 ppm): 0%; Test C disease control rating (Pyricularia oryzae; tested at 40 ppm): 32%; Test B disease control rating (Puccinia recondita; tested at 40 ppm): 0%; Test A disease control rating ([1]; tested at 40 ppm): 52%
CCC1(C(=O)NCC=Cc2cccs2)C(C)C1(Cl)Cl (centres unmarked) [compound 164]	7	56	72	0	0	–
C[C@H](COc1ccccc1Br)NC(=O)C(C#N)C(C)(C)C (single isomer, unassigned) [8b]	47	89	100	0	37	–
CC(COc1c(C#N)cccc1C(F)F)NC(=O)C(C#N)C(C)(C)C (mixture of isomers) [compound 206]	0	0	74	0	0	–
C=CCc1cccc(C#N)c1OCC(C)NC(=O)C1(CC)C(C)C1(Cl)Cl (mixture of isomers) [compound 254]	–	–	–	–	–	Test E disease control rating (100 = 100% disease control, 0 = no disease control) (Botrytis cinerea): 0%; Test D disease control rating (100 = 100% disease control, 0 = no disease control) (Phytophthora infestans): 0%; Test C disease control rating (100 = 100% disease control, 0 = no disease control) (Pyricularia oryzae): 53%; Test B disease control rating (100 = 100% disease control, 0 = no disease control) (Puccinia recondita): 0%; Test A disease control rating (100 = 100% disease control, 0 = no disease control) [1]: 0%
C=CC(C)(CF)C(C#N)C(=O)NC(C)COc1cc(F)ccc1F (mixture of isomers) [compound 218]	–	–	–	–	–	Test E disease control rating (100 = 100% disease control, 0 = no disease control) (Botrytis cinerea): 0%; Test D disease control rating (100 = 100% disease control, 0 = no disease control) (Phytophthora infestans): 17%; Test C disease control rating (100 = 100% disease control, 0 = no disease control) (Pyricularia oryzae): 100%; Test B disease control rating (100 = 100% disease control, 0 = no disease control) (Puccinia recondita): 68%; Test A disease control rating (100 = 100% disease control, 0 = no disease control) [1]: 86%
Cc1c(Cl)cc(C#N)n1OCC(C)NC(=O)C(C#N)C(C)C(C)(C)C (mixture of isomers) [71a]	0	19	53	0	0	–
CCC1(C(=O)NC(C)COc2cc(F)c(F)cc2F)C(C)C1(Cl)Cl (centres unmarked) [compound 110]	–	–	–	–	–	Test E disease control rating (Botrytis cinerea; tested at 40 ppm): 0%; Test D disease control rating (Phytophthora infestans; tested at 40 ppm): 0%; Test C disease control rating (Pyricularia oryzae; tested at 40 ppm): 97%; Test B disease control rating (Puccinia recondita; tested at 40 ppm): 0%; Test A disease control rating ([1]; tested at 40 ppm): 90%
CC(COc1ccc(Cl)cc1)NC(=O)C(C#N)C(C)(C)C (single isomer, unassigned) [7b]	47	89	74	0	77	–
C[C@H](COc1ccc(Cl)cc1F)NC(=O)C(C#N)C(C)(C)C (single isomer, unassigned) [36b]	0	80	100	27	62	–
CC(COc1c(C#N)cccc1C(F)(F)F)NC(=O)C(C#N)C(C)C(C)(C)C (mixture of isomers) [compound 68]	0	82	86	27	62	–
CCC1(C(=O)NCCCc2ccccc2)C(C)C1(Cl)Cl (centres unmarked) [compound 154]	0	0	52	0	52	–
C#CC(C)(C)C(C#N)C(=O)NC(C)COc1cc(C)ccc1Cl (mixture of isomers) [compound 213]	0	62	99	0	63	–
CC(COc1cc(F)ccc1Cl)NC(=O)C(C#N)C(C)C(C)(C)C (mixture of isomers) [compound 194]	0	0	100	0	0	–
CC(COc1cc(C(C)(C)C)ccc1C#N)NC(=O)C(C#N)C(C)(C)C (mixture of isomers) [compound 305]	–	–	–	–	–	Test E disease control rating (100 = 100% disease control, 0 = no disease control) (Botrytis cinerea): 0%; Test D disease control rating (100 = 100% disease control, 0 = no disease control) (Phytophthora infestans): 0%; Test C disease control rating (100 = 100% disease control, 0 = no disease control) (Pyricularia oryzae): 53%; Test B disease control rating (100 = 100% disease control, 0 = no disease control) (Puccinia recondita): 0%; Test A disease control rating (100 = 100% disease control, 0 = no disease control) [1]: 0%
CC(COc1ccccc1)NC(=O)C(C#N)C(C)(C)C (single isomer, unassigned) [1c]	0	16	73	85	60	–
C[C@H](COc1cc(Cl)ccc1Cl)NC(=O)C(C#N)C(C)(C)C (single isomer, unassigned) [33b]	0	80	100	67	0	–
CCC1(C(=O)NC(C)COc2ccccc2I)C(C)C1(Cl)Cl (mixture of isomers) [87a]	–	–	–	–	–	Test E disease control rating (Botrytis cinerea; tested at 40 ppm): 0%; Test D disease control rating (Phytophthora infestans; tested at 40 ppm): 0%; Test C disease control rating (Pyricularia oryzae; tested at 40 ppm): 74%; Test B disease control rating (Puccinia recondita; tested at 40 ppm): 0%; Test A disease control rating ([1]; tested at 40 ppm): 0%
